Test results as given in patent US20160090351A1, “INHIBITORS OF DEUBIQUITINATING PROTEASES” (BRANDEIS UNIVERSITY, priority 2013, published 2016).
“Also recorded” adds a separate entry of the source.

Assays:
desumoylation = test: stabilization of SUMOylated proteins in lysates from HA-SUMO transfected HEK 293T cells; assay type: biochemical, human; conditions: G5 5 μM, C4 300 μM
Method: Untransfected HEK 293T cell lysates were treated with the vehicle alone (DMSO at 1%) or compound and incubated at 37° C. for 2 h. Samples were analyzed by SDS-PAGE and immunoblotting with antibody recognizing K48-linked ubiquitin. D=DMSO; G5=G5 isopeptidase inhibitor 1. A-D show titrations of different compounds (see FIG. 29B for structures). E-H Lysates were prepared from HEK 293T cells expressing HA-SUMO and treated with vehicle alone (DMSO, 1%) or compound. Samples were incubated for the appropriate time and analyzed by SDS-PAGE and immunoblotting with anti-HA antibody. Representative experiments are shown. E. Vehicle control. F. G5, 5 μM; G. C4, 300 μM. H. Quantification of blots as in E-G, N=2 average and range. I-J. Lysates were prepared from HEK 293T cells expressing HA-Ub and treated with either vehicle alone (1% DMSO) or compound at 37° C. for 3 h. Samples were analyzed by SDS-PAGE and immunoblotting with anti-HA antibody. I. A representative experiment. J. Quantitation of experiments in I (N=2 average and range shown). […]
Similar effects were observed when the endogenous K48-linked ubiquitin pool was monitored in lysates prepared from wild-type HEK 293T cells (FIG. 37A-D). Unfortunately, K63-linked ubiquitin could not be detected in these lysates. The ability of C4 to stabilize SUMOylated proteins in lysates from HA-SUMO transfected HEK 293T cells was also assessed.

DUBs = test: decomposition of high molecular weight ubiquitinated proteins (HMW-Ub) in lysates of HEK 293T cells expressing HA-Ub; assay type: biochemical, human; conditions: HEK 293T HA-Ub lysates, 37° C.
Method: FIG. 30 depicts data showing that diphenylcarbonates inhibit the decomposition of high molecular weight ubiquitinated proteins (HMW-Ub). Lysates were prepared from HEK 293T cells expressing HA-ubiquitin. Samples were incubated at 37° C. and reactions were quenched by the addition of reducing Laemmli buffer. HMW-Ub was assessed by SDS-PAGE and immunoblotting with anti-HA antibody. A. Representative immunoblots measuring the decomposition of HMW-Ub in lysates treated with either the DMSO vehicle, G5 (10 μM) or C4 (500 μM). B. Plot of the decomposition of HMW-Ub in lysates treated with DMSO and C4 (500 μM) (N=2; error bars denote range). C. Inhibition of HMW-Ub decomposition by diphenylcarbonates. Lysates were treated with diphenylcarbonates (50 μM). “-” denotes no treatment; D, 1% DMSO vehicle; IU1, an USP14-specific inhibitor; Bort, bortezomib, a proteasome inhibitor. D. Representative decomposition of HMW-Ub after 2 h incubation in the presence of varying concentrations of C4. See also FIG. 36. E. Quantitation of D. The values of EC50 reported in FIG. 29B are the average and S.E.M. of at least 3 independent experiments. See also FIG. 37 and FIG. 38.
Cells overexpressing HA-ubiquitin were prepared as above. Pellets were typically stored at −80° C. until required, at which time they were thawed on ice. Cell lysis was performed in lysis buffer using a Dounce homogenizer (10 strokes, with grinding, on ice: typical yield approx. 2-5 mg protein per transfected T75 flask for HEK 293T cells; 1-3 mg protein from a T75 flask for Cos-1). Crude lysate was centrifuged at 17000 g for 10 min at 4° C., after which time the concentration of the lysate was normalized to 1 mg/mL. The lysate was aliquoted into PCR strip tubes (typical volumes 75-50 μL) and compound in DMSO was added to this to give a final concentration of DMSO of 1%. Tubes were briefly centrifuged, overlaid with Chill-out wax (50 μL) and placed in a PCR machine at 37° C. with heated lid set to 37° C. Aliquots (9 μL) were removed at the stated times and immediately quenched in (2× final concentration) reducing (dithiothreitol) loading buffer and frozen (−19° C.) till required. Western blot analysis was carried out using standard methods. Samples were resolved by SDS-PAGE, transferred to PVDF [(0.45 μm) (Towbin buffer, tank apparatus, 90 V 1 hour, then overnight at 30 V, 4° C.)] then blocked in 15% milk in TBS-T HS (100 mM Tris HCl, pH 7.6, 500 mM NaCl, 0.5% […]) for at least 2 hours at RT. Afterward, membrane was washed in TBS-T HS then probed with anti HA-HRP (1:18000) for 1.33 hours at RT. Membrane was washed 3 times in TBS-T HS (15 mins) then once in TBS (15 mins) and exposed to ECL II and visualized using blue biofilm. […] When required, membranes were stripped in 100 mM glycine pH 4, 500 mM NaCl, 1% SDS, 5 mM BME, at 55° C. for 19 mins, then analyzed.
Lysates were prepared from HEK 293T cells expressing N-terminally HA-tagged ubiquitin (HA-Ub) to facilitate the observation of ubiquitinated proteins. In the absence of a DUB inhibitor, the HMW-Ub pool decomposed with a half-life of 34 min (FIG. 30A,B). […] Similar results were obtained in lysates prepared from Cos-1 cells expressing HA-Ub.

B16/F10 cells = test: proliferation and cell cycle of B16/F10 cells; assay type: cell-based, mouse; conditions: 72 h, flow cytometry
Method: A. MCF7 cells were treated with C17 for 4 h and Mdm2 levels were measured. B. As in A, P53 measured. C. As in A, P21 measured. D. MCF7 and B16/F10 cells were treated with C17 every 24 hours. After 72 hours, the number of viable cells was measured by Alamar Blue®.
MCF7 cells were dosed every 2 hours with the indicated concentration of C15. After 6 hours, cells were lysed by freeze thaw and then sonicated in 0.5% SDS. A. Total lysates were blotted for K48-linked ubiquitin and actin. B. Normalized K48-linked ubiquitin signal was plotted as a function of concentration of C15 (N=2). C. […] Doxorubicin (Dox) is a DNA damaging agent that serves as a positive control for the induction of P53. D. Quantitation of P53 levels in C relative to actin (N=2). […] MCF7 cells were treated under the stated conditions then analyzed for cell cycle. F. DMSO treated cells. G. Cells treated with C17 (25 μM), dosed every 24 hours. H. Cells treated with C17 (50 μM), dosed every 24 hours. […] These cells were left for 72 h (single dose) after which time the total number of viable cells was analyzed using Alamar Blue®. All data are n≧4 showing mean+/−s.e.m. K. MCF7 cells were plated with C17 for 24 hours after which time the total number of viable cells was measured by Alamar Blue®. L. B16/F10 cells were treated with DMSO, C17 or P005091 for 72 h. […] After this time, cells were analyzed by flow cytometry.
All cells were grown at 37° C. in a 5% CO2 humidified atmosphere in DMEM supplemented with 10% heat inactivated FBS, 1× glutamax, and 1× penicillin/streptomycin. […] Typically clarified lysate was analyzed. […] Lysates were centrifuged (20 000 rpm, microcentrifuge, Eppendorf 5417 C) concentration was measured, then 0.1% SDS was added and lysates were sonicated for a total of 30 s (in 10 s bursts). Protein concentration was determined using Bradford assay with IgG as standard and analyzed by western blot as delineated below {[9 μg total protein for K48-linked ubiquitin (1:9000 antibody dilution), SMAD4 (1:500) or PARP (1:1000)]; [30-40 μg was loaded for K63-linked ubiquitin (1:1500), Mdm2 (1:1000) or Abl (1:1500). […]

USP9x = target: T1, USP9x (Homo sapiens, UniProt Q93008); test: HA-Ub-VS labeling in K562 cell lysates; assay type: biochemical; conditions: compound 40 minutes, then HA-Ub-VS (1.5 μM) 20 minutes
T1 construct: endogenous in cells; host or cells: K562 cell lysate
Method: HA-Ub-VS is commonly used to label DUBs in cell lysates. […] A. and B. K562 cell lysates were treated with compound for 40 minutes prior to activity labeling with HA-Ub-VS (1.5 μM) for 20 minutes. Samples were analyzed by SDS-PAGE and immunoblotting with anti-HA antibody. C. […] Values were derived by fitting to the in Prism.

20S proteasome = 20S proteasome (Homo sapiens, UniProt P28074); test: proteasome activity (purified 20S proteasome; GFP-Ub (G76V) in Cos-1 cells); assay type: biochemical; conditions: 20S proteasome 30 minutes, Suc-Leu-Tyr-AMC 100 μM; Cos-1 GFP-Ub (G76V) 8 hours
Method: A. Purified 20S proteasome was treated with compound for 30 minutes prior to addition of substrate (Suc-Leu-Tyr-AMC, 100 μM). B. Cos-1 cells expressing with GFP-Ub (G76V) were treated with compound for 8 hours, then the level of GFP was measured by flow cytometry.

Bcr-Abl kinase = test: Bcr-Abl levels in K562 cells by immunoblotting; assay type: cell-based, human; conditions: TU50 4 hours
Method: (§1) K562 cells are from a myelogenous leukemia line that expresses Bcr-Abl kinase. A. K562 cells were treated with TU50 for 24 hours after which time the cells were treated with annexin V-FITC and propidium iodide. Cells were then analyzed by flow cytometry. Cells showing only annexin V-FITC were considered apoptotic whereas cells showing both annexin V-FITC and propidium iodide were considered necrotic. N=2. All points show a significant difference to the vehicle (DMSO) with p<0.05. […] All points show a significant difference to vehicle (DMSO) with p<0.02. C. Same as A, but the incubation period was 8 hours. N>2. All points show a significant difference to DMSO with p<0.02. D, K562 cells were treated with TU50 for 4 hours. Samples were analyzed by SDS-PAGE and immunoblotting with anti-Bcr-Abl antibody. E. Quantitation of blot in D. The signal for tubulin was used to normalize the Bcr-Abl signal. N=3.
FIG. 34 depicts data showing that diphenylcarbonates cause the accumulation of HMW-Ub and reduce the levels of Bcr-Abl in K562 cells. A. K562 cells were treated with diphenyl carbonates (50 μM) for 2 h and then assayed for the accumulation of K48-linked Ub. B. As in A, but Bcr-Abl was measured by immunoblotting with anti-Abl antibodies. C. K562 cells were treated with C17 (50 μM) in the presence and absence of bortezomib (6 μM) for 4 hours and Bcr-Abl was measured by immunblotting with anti-Abl antibodies. D. Quantitation of blot in C. Significance: DMSO relative to C17 and bortezomib p=0.002; DMSO relative to C17, p=0.03. E. K562 cells were treated with C15 for 4 hours then analyzed for SMAD4 monoubiquitination by western blot. F. Quantitation of blots in A. (N=3). See also FIG. 40.
(§2) FIG. 40 depicts data showing that diphenyl carbonates induce the degradation of Bcr-Abl kinase. A. K562 cells were treated with C17 for 24 h (1 dose) then analyzed for Bcr-Abl expression by western blot with anti-Abl antibody. B. Quantitation of blots in A normalized to actin. C. K562 cells were treated with C17 for 24 h then the amount of cells in G1 and apoptosis were recorded (N=3). D. K562 were treated with C15 for 4 h then analyzed for Bcr-Abl expression using western blot. E. Quantitation of Bcr-Abl from D normalized to tubulin (N=4). F. Same K562 lysates were separately analyzed for K63-linked ubiquitin. G. Quantitation of blots in F (N=4). Differences between all bars is significant p<0.01). H. K562 cells were treated with C15 for 24 h after which time cells were fixed in ethanol, treated with propodium iodide/RNAse then analyzed by FACS. Viability was calculated using forward and side scatter. I. Same experiment as H but red fluorescence was measured to determine DNA content
Transfected cells were harvested 1.5 days post transfection. […] Typically clarified lysate was analyzed.

K562 cells = test: apoptosis, cell cycle and viability of K562 cells by flow cytometry; assay type: cell-based, human; conditions: annexin V-FITC / propidium iodide, 24 hours (TU50 also 8 hours)
Method: as §1, §2

[1] = test system: G76V ubiquitin-GFP fusion protein; test: G76V ubiquitin-GFP fusion protein fluorescence, Example 5; assay type: cell-based; conditions: Example 5, FIG. 9 bottom panel
Method: Cells treated with 4 (100 μM; as defined in FIG. 3) show PARP cleavage that indicates caspases are active. The fluorescence of G76V ubiquitin-GFP fusion protein increases in the presence of inhibitor 4 (as defined in FIG. 3), as expected if degradation […] due to inhibition of DUBs. In contrast, GFP fluorescence […] when the proteasome is inhibited by bortezomib.

[2] = test system: ubiquitin-proteasome system; test: GFP-G76V-Ub assay in HEK 293T cells; assay type: cell-based, human; conditions: diphenyl carbonates 100 μM, bortezomib 20 μM, G5 2 μM
Method: FIG. 32 depicts data showing that diphenyl carbonates inhibit DUBs in HEK 293T cells. A. Viability of HEK 293T cells assessed by the propidium iodide exclusion method: diphenyl carbonate (100 μM), bortezomib (V, 20 μM) and G5 (2 μM). N≧3, mean+/−s.d. B. HEK 293T cells were treated with the stated compounds (50 μM) for 2 h and then assayed for the accumulation of K48-linked Ub species. C. As in A, but K63-linked Ub was assayed. D. HEK 293T cells were treated with C14, C15, C17, C18 (100 μM) or DMSO for 2 hours, then harvested, lysed and treated with HA-Ub-VS. After 30 min, lysates were analyzed by SDS-PAGE and probed for HA, tubulin and actin. An intervening lane was removed for clarity. E. HEK 293T cells expressing Ub-G76V-GFP were treated with diphenyl carbonates (100 μM), bortezomib (20 μM) and G5 (2 μM). […] N>3, Mean+/−s.d. See also FIG. 39.
FACS was carried out on a […] FACS-Calibur. For HEK 293T and K562, cells were resuspended by repeated pipetting/agitation of the incubation media, followed by dilution into PBS. For Cos-1, MCF-7, and CHO cells, media was removed and trypsin was added. Harvested cells were placed in FACS buffer (0.5% FBS in PBS with 3 μg/mL propidium iodide) 30 s prior to analysis. All data were analyzed using FlowJo V10, from TreeStar (Ashland, Oreg.). Approximately 2500 cells were sorted per replicate. Cells were sorted by propidium iodide dye exclusion to give a “viable population”. GFP positive cells within this group were identified relative to untransfected controls. Then the geometric mean of the whole GFP positive population within the viable population was calculated. Typical transfection efficiencies for G76V ubiquitin were 60-70% for both Cos-1 and HEK 293T and 25-40% for CHO cells, based on GFP positive cells.
The activity of the diphenylcarbonates in the GFP-G76V-Ub assay, which monitors flux through the ubiquitin-proteasome system, was also investigated. The G76V mutation creates an unstable Ub fusion protein that is degraded in a proteasome dependent process. GFP fluorescence increased when HEK 293T cells expressing GFP-G76V-Ub were treated with the proteasome inhibitor bortezomib and decreased upon treatment with G5 (FIG. 39). This decrease has been attributed to increased flux through the ubiquitin-proteasome system triggered by the accumulation of HMW-Ub. […] Perhaps the inability of the diphenylcarbonates to inhibit UCH-L1/3 accounts for the stability of GFP-G76V-Ub. This selectivity might also explain the low cytoxicity of these compounds relative to G5.

cathepsin C = cathepsin C (Homo sapiens, UniProt P53634); test: cathepsin C inhibition; assay type: biochemical; conditions: compounds numbered as in FIG. 5
cathepsin C, sequence (P53634 25-463, species assumed): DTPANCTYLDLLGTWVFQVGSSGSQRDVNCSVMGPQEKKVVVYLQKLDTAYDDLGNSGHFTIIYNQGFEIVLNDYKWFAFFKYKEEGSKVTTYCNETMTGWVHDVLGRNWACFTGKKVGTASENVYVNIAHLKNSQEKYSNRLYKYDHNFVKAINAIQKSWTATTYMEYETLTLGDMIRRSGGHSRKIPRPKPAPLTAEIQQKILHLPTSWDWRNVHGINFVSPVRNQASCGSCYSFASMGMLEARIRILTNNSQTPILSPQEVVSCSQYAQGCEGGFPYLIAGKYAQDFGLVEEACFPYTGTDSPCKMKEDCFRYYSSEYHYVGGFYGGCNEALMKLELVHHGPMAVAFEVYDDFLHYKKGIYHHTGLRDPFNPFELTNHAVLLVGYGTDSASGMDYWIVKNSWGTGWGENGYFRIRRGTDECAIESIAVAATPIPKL

T1 sequence (Q93008 whole entry): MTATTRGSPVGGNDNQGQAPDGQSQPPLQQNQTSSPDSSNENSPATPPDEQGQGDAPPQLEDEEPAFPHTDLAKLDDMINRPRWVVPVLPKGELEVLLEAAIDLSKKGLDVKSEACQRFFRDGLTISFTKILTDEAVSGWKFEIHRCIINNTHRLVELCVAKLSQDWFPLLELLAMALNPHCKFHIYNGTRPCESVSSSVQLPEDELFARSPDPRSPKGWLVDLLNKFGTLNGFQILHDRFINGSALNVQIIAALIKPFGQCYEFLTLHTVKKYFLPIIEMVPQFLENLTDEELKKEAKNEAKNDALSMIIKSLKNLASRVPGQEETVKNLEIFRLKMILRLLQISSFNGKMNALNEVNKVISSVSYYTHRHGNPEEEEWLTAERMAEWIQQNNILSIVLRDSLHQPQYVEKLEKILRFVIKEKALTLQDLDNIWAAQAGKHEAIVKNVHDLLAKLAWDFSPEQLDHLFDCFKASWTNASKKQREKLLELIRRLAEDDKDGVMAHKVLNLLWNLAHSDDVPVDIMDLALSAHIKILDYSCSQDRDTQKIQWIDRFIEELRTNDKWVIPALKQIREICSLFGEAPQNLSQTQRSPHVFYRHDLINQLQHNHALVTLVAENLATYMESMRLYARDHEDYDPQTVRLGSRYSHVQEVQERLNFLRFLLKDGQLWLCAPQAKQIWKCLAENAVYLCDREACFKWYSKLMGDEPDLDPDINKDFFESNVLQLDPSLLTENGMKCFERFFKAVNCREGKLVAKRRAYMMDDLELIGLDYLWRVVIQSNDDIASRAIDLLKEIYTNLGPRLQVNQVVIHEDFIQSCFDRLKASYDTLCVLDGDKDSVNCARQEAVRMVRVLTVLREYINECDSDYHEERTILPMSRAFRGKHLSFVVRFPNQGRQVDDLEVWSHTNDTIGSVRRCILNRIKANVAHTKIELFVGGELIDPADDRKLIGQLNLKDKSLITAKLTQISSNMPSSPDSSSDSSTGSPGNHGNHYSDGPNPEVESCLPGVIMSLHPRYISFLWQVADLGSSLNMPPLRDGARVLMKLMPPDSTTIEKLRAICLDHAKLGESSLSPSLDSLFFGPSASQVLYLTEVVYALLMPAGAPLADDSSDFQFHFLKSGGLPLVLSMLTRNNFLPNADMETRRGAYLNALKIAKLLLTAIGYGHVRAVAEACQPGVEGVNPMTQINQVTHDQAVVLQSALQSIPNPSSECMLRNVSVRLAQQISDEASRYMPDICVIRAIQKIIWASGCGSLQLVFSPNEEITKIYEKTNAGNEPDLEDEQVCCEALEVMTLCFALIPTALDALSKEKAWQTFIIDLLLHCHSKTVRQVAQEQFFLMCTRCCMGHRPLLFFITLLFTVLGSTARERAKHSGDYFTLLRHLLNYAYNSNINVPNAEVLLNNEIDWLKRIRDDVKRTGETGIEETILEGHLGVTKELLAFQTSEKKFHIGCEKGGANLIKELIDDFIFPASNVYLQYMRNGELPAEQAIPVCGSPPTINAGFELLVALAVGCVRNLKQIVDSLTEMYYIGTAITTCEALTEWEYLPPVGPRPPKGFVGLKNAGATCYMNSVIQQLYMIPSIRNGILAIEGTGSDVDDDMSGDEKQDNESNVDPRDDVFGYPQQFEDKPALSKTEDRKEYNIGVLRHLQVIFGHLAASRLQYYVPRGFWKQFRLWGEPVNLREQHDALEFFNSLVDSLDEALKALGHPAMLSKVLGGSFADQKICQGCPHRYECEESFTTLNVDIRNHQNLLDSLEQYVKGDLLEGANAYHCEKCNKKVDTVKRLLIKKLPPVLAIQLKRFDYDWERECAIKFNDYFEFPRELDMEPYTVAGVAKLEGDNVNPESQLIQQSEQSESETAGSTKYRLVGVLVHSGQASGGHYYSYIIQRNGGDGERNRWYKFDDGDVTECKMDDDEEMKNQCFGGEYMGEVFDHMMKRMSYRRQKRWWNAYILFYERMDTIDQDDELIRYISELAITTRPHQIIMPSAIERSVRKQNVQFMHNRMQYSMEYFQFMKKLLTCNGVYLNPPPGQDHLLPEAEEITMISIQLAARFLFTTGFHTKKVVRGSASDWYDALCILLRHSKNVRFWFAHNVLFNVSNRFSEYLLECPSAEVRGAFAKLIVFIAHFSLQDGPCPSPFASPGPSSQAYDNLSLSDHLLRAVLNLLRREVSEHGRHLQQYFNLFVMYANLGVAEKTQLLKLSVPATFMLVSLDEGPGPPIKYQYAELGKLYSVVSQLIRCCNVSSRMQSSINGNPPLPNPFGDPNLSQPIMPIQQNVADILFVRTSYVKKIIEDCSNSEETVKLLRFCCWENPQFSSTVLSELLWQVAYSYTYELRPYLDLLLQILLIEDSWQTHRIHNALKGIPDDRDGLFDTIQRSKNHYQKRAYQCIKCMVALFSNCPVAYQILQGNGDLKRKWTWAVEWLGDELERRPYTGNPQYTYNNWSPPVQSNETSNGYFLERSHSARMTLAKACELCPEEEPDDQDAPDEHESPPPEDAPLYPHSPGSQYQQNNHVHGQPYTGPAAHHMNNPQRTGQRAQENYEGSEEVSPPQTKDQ

SMILES: NCc1ccc(OC(=O)Oc2ccccc2)cc1 [Compound C4, 4-(aminomethyl)phenyl(phenyl)carbonate]
- inhibition of desumoylation (desumoylation): Neither G5 nor C4 inhibited desumoylation
- stabilization of the HMW-Ub pool (DUBs): prevented decomposition of the HMW-Ub pool

SMILES: CC(=O)c1cc([N+](=O)[O-])c(Sc2cccc(Cl)c2Cl)s1 [Compound P005091, reference compound]
- cell cycle distribution (B16/F10 cells): decrease in cells in G1 phase and an increase in G2

SMILES: CC(C)(C)OC(=O)NCCc1ccc(N=C=S)cc1 [TU46]
- EC50 (USP9x): 11 ± 4 µM
- effect on proteasome activity (20S proteasome): no effect on proteasome activity

SMILES: O=C(NCc1ccc(N=C=S)cc1)OCc1ccccc1 [TU49]
- Bcr-Abl kinase level (Bcr-Abl kinase): cause degradation of Bcr-Abl kinase
- apoptosis of K562 cells (K562 cells): induce apoptosis of K562 cells
- effect on proteasome activity (20S proteasome): no effect on proteasome activity

SMILES: CC(C)C[C@H](NC(=O)[C@H](Cc1ccccc1)NC(=O)c1cnccn1)B(O)O [bortezomib, reference compound]
- GFP fluorescence of G76V ubiquitin-GFP [1]: decreases
- stabilization of the HMW-Ub pool (DUBs): failed to stabilize the HMW-Ub pools
- GFP fluorescence [2]: Only bortezomib treatment caused an increase in GFP fluorescence; also recorded: increased

SMILES: NCc1ccc(OC(=O)Oc2ccc(Cl)cc2)cc1 [compound 3]
- inhibition of cathepsin C (cathepsin C): does not
